“Also recorded” adds a separate entry of the source. Read-outs that look alike come from different tables or passages of the source.
Experiments:
human brain (BBB) = details: PET, cited from earlier work; for K1, rate constant for transfer from arterial plasma into brain: human brain; for cerebral uptake / brain distribution in human brain (in words): in vivo, ref S1 Table 1
iPSC-hBBB monolayer = assay: Apparent permeability (Papp A to B) across the in vitro iPSC-hBBB model; details: iPSC-hBBB model, PappAB
Description: (§1) On day before the co-culture establishment, rat glial cells (2 × 10^4 cells) isolated as described previously[6] were plated on 12 wells plate (Costar) in glial specific medium. After 24 hours, hiPSC-BECs (6 × 10^4cells) were plated on the upper side of a collagen-coated polyester Transwell membrane (Costar, pore size 0.4 µm; diameter 12 mm; insert growth area 1 cm^2) in 0.5 mL of endothelial medium.
(§2) Experiments were performed in triplicate for each compound.
(§3) For LC-MS/MS a sample aliquot (transfer buffer) was diluted by half with acetonitrile and then, 10 μL of this solution was injected into the analytical equipment made up a Liquid Chromatography system coupled to a triple quadrupole mass spectrometer Thermofisher TS Quantum Discovery or Waters Quattro Premier XE equipped with a electrospray ionization source. System control and data processing were carried out using Xcalibur or Masslynx software. The chromatographic separation was performed on a Waters ACQUITY UPLC BEH C18 column (2.1 mm × 50 mm, 1.7 μm) at 60 °C. A gradient of two solvent mixtures was delivered at 0.3 mL/min or 0.5 mL/min according to the analytical system. Solvent A comprised 0.1% formic acid in ammonium acetate (5 mM) and solvent B, 0.1% formic acid in acetonitrile. Molecules were ionized in positive mode. Multiple reaction monitoring mode was used for compounds quantification. For all tested compounds, a linear gradient of mobile phase A and B was optimized. Linearity of the response was verified in the range 0.05 to 5 µM through 3 experiments to be able to measure low passage. Quantification was carried out using standard calibration curve and quality control samples prepared with blank matrix (transfer buffer/acetonitrile; 1/1; v/v) spiked with compounds.

[1] = test system: in vitro primary cell-based rat BBB model; assay: Apparent permeability in the in vitro primary cell-based rat BBB model; details: in vitro cell based rat BBB model vs iPSC-hBBB model
Source text: We previously described an in vitro primary cell-based rat BBB model with relevant features of the in vivo rat BBB[6]. We therefore analyzed correlatively the permeability of a set of compounds obtained using the in vitro iPSC-hBBB model and the in vitro cell based rat BBB model.

[2] = test system: ABC transporters in the in vitro primary rat cell based BBB model
[3] = test system: ABC transporters (P-gp) in the iPSC-hBBB model
Description: (§4) A known P-gp substrate was used to assess the asymmetry index of the iPSC- hBBB model.
(§5) The integrity of iPSC-derived human BBB model was determined by assessment of radiolabelled sucrose permeability as a paracellular marker. The transwells with hiPSC-BECs monolayers were transferred to new 12 well plates. […] After 1 hour of incubation at 37 °C with gentle rotation, 100 µL of transfer buffer from both A and B compartments were collected and counted by scintillation. The Papp value was calculated as followed: Papp=dQ/dTXAXC0 where dQ/dT is the amount of compound transported per time point; A is the membrane surface area of the insert; and Co is the donor concentration at the time point. Data were presented as the average ± SD from three monolayers. […] The propranolol permeability was also tested using the same protocol with an apical tested dose about 1 µCi/mL (48 nM) of [^3H]propranolol in transfer buffer. […] After checking the cell monolayer integrity, the monolayers were transferred to new plates. The buffer (150 mM NaCl, 5.2 mM KCl, 2.2 mM CaCl2, 0.2 mM MgCl2, 6 mM NaHCO3, 2.8 mM glucose and 5 mM Hepes) was added: 1.5 mL to the basal chamber (B) and 0.5 mL to the apical chamber (A). Experiments were performed in triplicate for each compound. […] After 60 min, aliquots were removed from the acceptor and basal chambers for drug-concentration determination by LC-MS/MS.

[4] = Apparent permeability (Papp A to B) across the in vitro iPSC-hBBB model; details: human
Description: as §1, §2, §3

ABC transporters = assay: in vitro; details: rat
ABC transporters (P-gp) = assay: in vitro; details: human, PappBA/PappAB efflux ratio (ER)
Description: as §4, §5

| SMILES | in vitro permeability across the iPSC-hBBB model (in words) (iPSC-hBBB monolayer) | permeability in the rat BBB model compared with the iPSC-hBBB model (in words) [1] | ABC transporter substrate / interaction (in words) [3] | K1, rate constant for transfer from arterial plasma into brain (human brain (BBB)) [mL.cm-3.min-1] | other results |
| --- | --- | --- | --- | --- | --- |
| COC[C@H]1CN(c2ccc(OCC[C@@H](O)C(F)(F)F)cc2)C(=O)O1 [befloxatone] | high permeability |  |  |  | K1, rate constant for transfer from arterial plasma into brain (human brain (BBB); ref unpublished data): 0.20 mL.cm-3.min-1; cerebral uptake / brain distribution in human brain (in words) (human brain (BBB)): high cerebral uptake |
| Cn1c(=O)c2c(ncn2C)n(C)c1=O [caffeine] |  | higher |  |  |  |
| COc1ccc2c(c1)[C@]13CCCC[C@@H]1[C@H](C2)N(C)CC3 [dextromethorphan] |  | higher |  |  |  |
| C#Cc1cccc(Nc2ncnc3cc(OCCOC)c(OCCOC)cc23)c1 [erlotinib] | high permeability |  | not in the in vitro iPSC-hBBB model | 0.02 | ABC transporter substrate / interaction (in words) [2]: apparently an ABC transporter substrate; cerebral uptake / brain distribution in human brain (in words) (human brain (BBB)): low cerebral uptake |
| CN(C)C(=O)C(CCN1CCC(O)(c2ccc(Cl)cc2)CC1)(c1ccccc1)c1ccccc1 [loperamide] | low apparent permeability | higher | likely to be also ABC transporter substrates; also recorded: apparently interacted with ABC transporters | 0.002 |  |
| CC(C)NCC(O)COc1cccc2ccccc12 (stereo not shown) [propranolol] |  |  |  |  | Papp A→B at 1 h [4]: 21.7 ± 3.1 ×10⁻⁶ cm/s |
| CCN1CCC[C@H]1CNC(=O)c1c(O)c(Cl)cc(Cl)c1OC [raclopride] |  |  |  | 0.09 |  |
| CC[C@]1(O)C[C@@H]2CN(CCc3c([nH]c4ccccc34)[C@@](C(=O)OC)(c3cc4c(cc3OC)N(C)[C@H]3[C@@](O)(C(=O)OC)[C@H](OC(C)=O)[C@]5(CC)C=CCN6CC[C@]43[C@@H]65)C2)C1 [vinblastine] |  |  | likely to be also ABC transporter substrates |  | efflux ratio (ABC transporters): ≥ 1.25; efflux ratio at 60 min (ABC transporters (P-gp)): 1.55 ± 0.4 |
